We go through three compounds from patent US20230241071A1, “COMBINATION TREATMENT OF LIVER DISORDERS” (Terns Pharmaceuticals, Inc., priority 2021, published 2023).

SMILES strings stand for the structures. Marks after values point to notes of the source that are not given here.

Series [1] deals with rat CDHFD+NaNO2 NASH model. The series is described as follows: Rat CDHFD+NaNO2 NASH model, liver RNAseq. The format is in vivo. Conditions: 8 wk, Compound 3 3 mg/kg, Compound 1 25 mg/kg; for Down DEGs / Total DEGs / Up DEGs: liver RNAseq vs vehicle NASH control, adj. p<0.01, fold-change ≥1.5. The procedure:
Animal handling: After arrival, the rats were left for a 2-week acclimation period, during which they were accustomed to the animal facility staff and trained on the procedure of oral gavage. After 2 weeks the animals were put on CHDFD (choline deficient high fat diet) and pre-fed for 4 weeks. Then the rats were started on treatment with test compounds, and 3× per week i.p. NaNO2 injections, while they remained on CDHFD, for an additional 8 weeks. NaNO2 was administered at 25 mg/kg i.p. dissolved in PBS 3 times a week (on Mondays, Wednesdays, and Fridays) for 8 weeks while on CDHFD.
Final Sacrifice: Half of the animals of each treatment group were terminated on day 84. The other half of the animals in each group were terminated on the following day, day 85. On the day of sacrifice the animals were fasted for 2 h and received a final treatment with the respective test substance. After the final compound treatment, the animals had no more access to food until sacrifice. At 4 h after the last administration all animals were sacrificed and livers were sampled for further analysis.
Animal handling: After arrival, the rats were left for a 2-week acclimation period, during which they were accustomed to the animal facility staff and trained on the procedure of oral gavage. After 2 weeks the animals were placed on a choline deficient high fat diet (CDHFD) and pre-fed for 4 weeks to induce steatosis and a NASH-like disease phenotype. Rats were then treated with test compounds for an additional 8 weeks while on CDHFD. Concomitant with compound treatment, rats were administered sodium nitrite (NaNO2, 25 mg/kg dissolved in PBS) by triweekly intraperitoneal (IP) injection to induce liver fibrosis.
Final Sacrifice: Half of the animals of each treatment group were terminated on day 84. The other half of the animals in each group were terminated on the following day, day 85. On the day of sacrifice the animals were fasted for 2 hours and received a final treatment with the respective test substance. After the final compound treatment, the animals had no more access to food until sacrifice. At 4 hours after the last administration all animals were sacrificed and livers were sampled for further analysis.
Sampling and analysis: Small liver pieces were harvested into RNAlater (Thermo Fisher Scientific Dreieich Germany) and stored at −20° C. prior to RNA sequencing (RNAseq) at MedGenome Inc. RNAseq analysis was performed on liver tissue by Illumina sequencing using standard methodologies. Briefly, RNAseq libraries (n=5 per group) were generated using Illumina Truseq stranded mRNA kits and sequencing was performed on a NovaSeq 6000 sequencer. Alignment was performed using STAR (v2.7.3a) aligner and reads mapping to ribosomal and mitochondrial genome were removed prior to alignment. Raw read counts were estimated using HTSeq (v0.11.1) and normalized using DESeq2 (v2.22.2). Differentially expressed genes (DEGs) were determined using DESeq2 (R Bioconductor package).

The nature of series [2]: Trough plasma compound levels in DIO-GAN mice. The format is in vivo, mouse. Conditions: plasma 21-24 h post final dose. The procedure:
Terminal plasma samples were harvested by cardiac puncture approximately 21-24 hours after the last administration of compound(s). Terminal plasma samples were analyzed by high resolution LC-MS/MS using a Triple Quad 6500+ instrument. 20 μL of plasma sample was mixed with 200 μL of internal standard solution (100 ng/mL Labetalol+100 ng/mL Tolbutamide in acetonitrile), vortexed, and centrifuged at 4,000 rpm for 15 min at 4° C. […] The internal standard 1 (retention time: 0.87 min) and standard 2 (retention time: 0.96 min) were used for quantification of Compound 3 (retention time: 0.87 min) and Compound 2 (retention time: 0.97 min), respectively. The internal standard (retention time: 0.76 min), was used for quantification of the glucuronide metabolite of Compound 3 (retention time: 0.77 min). Calibration curves (1-3000 ng/mL) were generated in a matrix of mouse plasma (pooled vehicle control) for each analyte.

The subject of another series is mouse model of NASH. Briefly: Mouse NASH model (high fat diet + CCl4), Compound 3 and Compound 2 alone and combined. The format is in vivo. Conditions: liver RNAseq vs vehicle NASH control, 28 d; Compound 3 3 mg/kg, Compound 2 1 mg/kg; adj. p<0.05, fold-change >1.5. The method, then: C57BL/6J mice were fed a high fat diet for 10 weeks to induce obesity (>38 g BW). Obese mice were injected intraperitoneally (i.p.) twice a week for four weeks with […] 25% CCl4 (formulated in olive oil) to induce fibrosis, and one group of normal BW mice were injected i.p. twice a week for four weeks with olive oil to serve as a healthy control. During the same dosing period, obese mice were fed orally once a day for 28 days with vehicle, Compound 3 or Compound 2 as single agents or in combination. On CCl4 dosing days, CCl4 was administered at 4 hours post compound or vehicle dosing. On day 27, all animals were fasted for about 16 hours before terminal euthanasia. On day 28, all animals were sacrificed and liver samples were collected for whole transcriptome analysis by RNA sequencing (RNAseq). RNAseq library (n=5 per group) preparation and sequencing was performed using Illumina standard protocols. Alignment of sequencing reads was performed using STAR aligner software and read counts were estimated using RSEM. Differentially expressed genes (compared to vehicle-treated NASH control mice) were determined using EdgeR software. Gene ontology analysis was performed using Advaita software with fold-change and adjusted p-value cutoffs of >1.5 and <0.05, respectively. Gene ontologies were derived from the Gene Ontology Consortium database (2019 Apr. 26) (Ashburner et al., Gene ontology: Tool for the unification of biology. Nature Genetics 25(1): 25-9 (2000); Gene Ontology Consortium, Creating the Gene Ontology Resource: Design and Implementation. Genome Research 11: 1425-1433 (2001)).
Gene ontology (GO) enrichment analysis was used to understand the potential biological consequences of the results in Table 22. To perform GO term enrichment analysis, the number (i.e., enrichment) of DEGs annotated for a particular term (i.e. biology process) was compared to the number of DEGs expected solely by chance. An over-representation approach was used to compute statistical significance (p-value) of observing at least the given number of DEGs; p-values were corrected for multiple comparisons.
On day 28 of treatment as described in Example 14, animals were euthanized for sample collections. Analysis of cholesterol, triglycerides, and ALT was done using a Hitachi 7180 clinical analyzer. Liver samples were processed for lipid quantification (colorimetric assays, SpectraMax 340PC384), histology, and RNA analysis. RNAseq library preparation (n=5 per group) and sequencing was performed using Illumina standard protocols. Alignment of sequencing reads was performed using STAR aligner and read counts were estimated using RSEM. Differentially expressed genes (DEGs) relative to NASH control were determined using EdgeR. Gene ontology analysis was performed using Advaita software.

[3] abbreviates: group Combo-high, Compound 3 10 mg/kg + Compound 2 10 mg/kg (14).
The mark [4] stands for this setting: group Combo-med, Compound 3 10 mg/kg + Compound 2 2 mg/kg (16).

As to `COC1CCN(c2ncc(OC/C(=C/F)CN)cn2)CC1` [Compound 1, (E)-3-fluoro-2-(((2-(4-methoxypiperidin-1-yl)pyrimidin-5-yl)oxy)methyl)prop-2-en-1-amine], in series [1], the “Down DEGs” value came to 641, the “Total DEGs” value is reported as 847 and the “Up DEGs” value amounted to 206.

In the case of `N#Cc1nn(-c2cc(Cl)c(Oc3n[nH]c(=O)c4ccccc34)c(Cl)c2)c(=O)[nH]c1=O` [Compound 2, 2-(3,5-dichloro-4-((4-oxo-3,4-dihydrophthalazin-1-yl)oxy)phenyl)-3,5-dioxo-2,3,4,5-tetrahydro-1,2,4-triazine-6-carbonitrile], the “Mean trough analyte concentration (SD)” value in series [2] (setting [3]) was 143.0 (87.9) ng/mL; in series [2] (setting [4]), 49.5 (42.9) ng/mL; in series [2] (group Compound 2-high 10 mg/kg (16)), 320.0 (189.9) ng/mL; in series [2] (group Compound 2-med 2 mg/kg (15)), 135.5 (62.0) ng/mL. For the same compound, the “Down DEGs” value in the series with mouse model of NASH was 635. Moreover, the “Total DEGs” value in the series on mouse model of NASH came out at 1113. Also, the “Up DEGs” value in the series with mouse model of NASH was 478.

In the case of `Cn1cc(C(=O)O)c2ccc(N3CCC(OCc4c(-c5c(Cl)cccc5Cl)noc4C4CC4)CC3)cc21` [Compound 3], in series [2] (setting [3]), the “Mean trough analyte concentration (SD)” value is recorded as 3.3 (1.8) ng/mL. Moreover, the “Mean trough analyte concentration (SD)” value in series [2] (setting [4]) is reported as 5.8 (3.5) ng/mL. For the same compound, in series [2] (group Compound 3 10 mg/kg (16)), the “Mean trough analyte concentration (SD)” value is given as 7.4 (3.8) ng/mL. Besides, in series [1], the “Down DEGs” value is reported as 118, the “Total DEGs” value came to 309 and the “Up DEGs” value is given as 191. Also, in series [1] (liver RNAseq), the “Fabp2 differential gene expression relative to vehicle control” value was −1.02* log2-fold change, the “Irs1 differential gene expression relative to vehicle control” value was −0.03 log2-fold change, the “Irs2 differential gene expression relative to vehicle control” value is 0.27 log2-fold change and the “Ldlr differential gene expression relative to vehicle control” value stood at 0.4 log2-fold change. Also, in series [1] (liver RNAseq), the “Ldlrap1 differential gene expression relative to vehicle control” value was −0.07 log2-fold change, the “Lrp1 differential gene expression relative to vehicle control” value amounted to 0.51 log2-fold change, the “Lrp2 differential gene expression relative to vehicle control” value stood at 0.33 log2-fold change and the “Ppara differential gene expression relative to vehicle control” value turned out to be 0.36 log2-fold change. For the same compound, in series [1] (liver RNAseq), the “Ppargcla differential gene expression relative to vehicle control” value stood at 0.25 log2-fold change, the “Rxra differential gene expression relative to vehicle control” value turned out to be 0.03 log2-fold change, the “Slc27a1 differential gene expression relative to vehicle control” value came to 0.16 log2-fold change and the “Slc27a5 differential gene expression relative to vehicle control” value was 0.5 log2-fold change. Besides, in series [1] (liver RNAseq), the “Vegfa differential gene expression relative to vehicle control” value worked out at 0.48 log2-fold change, the “Vegfc differential gene expression relative to vehicle control” value is −0.28 log2-fold change and the “Vldlr differential gene expression relative to vehicle control” value is −0.58 log2-fold change. Also, in the series with mouse model of NASH, the “Down DEGs” value was determined as 271, the “Total DEGs” value turned out to be 617 and the “Up DEGs” value turned out to be 346.
